Measurements: PubChem BioAssay AID248 (DTP/NCI, 2004)
Several values for one entry are separate records, joined by “and”; a condition that tells them apart may be missing. Equal values may be shown once. Inconclusive results and toxic doses are left out. Rule as the data show it: active = T/C of 150% or more; inactive = T/C below 125%.

Tested on: L1210 leukemia ip in BDF1 mice, survival T/C
Experiment: NCI In Vivo Anticancer Drug Screen. Data for tumor model L1210 Leukemia (intraperitoneal) in B6D2F1 (BDF1) mice
Details: endpoint: mean survival time, higher = longer survival
Outline: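 Read-out is survival time, reported as the treated-group measurement over the vehicle-control measurement.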

[1] = dose: 400.0 mg/kg/injection, schedule: Q01DX009 (ip), vehicle: Klucel (hydroxypropylcellulose) (HPC)
[2] = dose: 100.0 mg/kg/injection, schedule: Q01DX009 (ip), vehicle: gum acacia
[3] = dose: 100.0 mg/kg/injection, schedule: Q04DX003 (ip), vehicle: gum acacia
[4] = dose: 200.0 mg/kg/injection, schedule: Q01DX009 (ip), vehicle: gum acacia
[5] = dose: 200.0 mg/kg/injection, schedule: Q04DX003 (ip), vehicle: gum acacia
[6] = dose: 400.0 mg/kg/injection, schedule: Q04DX003 (ip), vehicle: gum acacia
[7] = dose: 100.0 mg/kg/injection, schedule: Q01DX001 (ip), vehicle: saline
[8] = dose: 200.0 mg/kg/injection, schedule: Q01DX001 (ip), vehicle: saline
[9] = dose: 400.0 mg/kg/injection, schedule: Q01DX001 (ip), vehicle: saline
[10] = dose: 100.0 mg/kg/injection, schedule: Q01DX009 (ip), vehicle: Klucel (hydroxypropylcellulose) (HPC)
[11] = dose: 100.0 mg/kg/injection, schedule: Q04DX003 (ip), vehicle: Klucel (hydroxypropylcellulose) (HPC)
[12] = dose: 200.0 mg/kg/injection, schedule: Q01DX009 (ip), vehicle: Klucel (hydroxypropylcellulose) (HPC)
[13] = dose: 200.0 mg/kg/injection, schedule: Q04DX003 (ip), vehicle: Klucel (hydroxypropylcellulose) (HPC)
[14] = dose: 400.0 mg/kg/injection, schedule: Q04DX003 (ip), vehicle: Klucel (hydroxypropylcellulose) (HPC)
[15] = dose: 100.0 mg/kg/injection, schedule: Q04DX002 (ip), vehicle: Klucel (hydroxypropylcellulose) (HPC)
[16] = dose: 200.0 mg/kg/injection, schedule: Q04DX002 (ip), vehicle: Klucel (hydroxypropylcellulose) (HPC)
[17] = dose: 400.0 mg/kg/injection, schedule: Q04DX002 (ip), vehicle: Klucel (hydroxypropylcellulose) (HPC)
[18] = dose: 100.0 mg/kg/injection, schedule: Q01DX001 (ip), vehicle: carboxymethylcellulose (CMC)
[19] = dose: 200.0 mg/kg/injection, schedule: Q01DX001 (ip), vehicle: carboxymethylcellulose (CMC)

Measured: T/C

CC(=O)Nc1ccccc1C(=NC1CCCC1)C(=O)NC1CCCC1
inactive: dose: 3.12 mg/kg/injection, schedule: Q01DX009 (ip), vehicle: Klucel (hydroxypropylcellulose) (HPC) 97 % of control | dose: 6.25 mg/kg/injection, schedule: Q01DX009 (ip), vehicle: Klucel (hydroxypropylcellulose) (HPC) 94 % of control | dose: 12.5 mg/kg/injection, schedule: Q01DX009 (ip), vehicle: Klucel (hydroxypropylcellulose) (HPC) 89 % of control | [1] 95 % of control

CN=C(c1ccc(NC(=O)c2ccc(C(=O)Nc3ccc(C(=NC)N(C)C)cc3)c(Cl)c2)cc1)N(C)C
inactive: dose: 0.94 mg/kg/injection, schedule: Q01DX Z (ip), vehicle: saline 98 % of control | dose: 1.88 mg/kg/injection, schedule: Q01DX Z (ip), vehicle: saline 87 % of control

CC(CCC(=O)O)(c1cc(Cl)c(O)c(Cl)c1)c1cc(Cl)c(O)c(Cl)c1
inactive: [2] 95 % of control | [3] 100 % of control | [4] 103 % of control | [5] 92 % of control | [6] 96 % of control

CCCC(O)C1CCCCC1O (stereo unspecified)
inactive: dose: 100.0 mg/kg/injection, schedule: Q04DX003 (ip), vehicle: saline with Tween-80 113 % of control | dose: 200.0 mg/kg/injection, schedule: Q04DX003 (ip), vehicle: saline with Tween-80 100 % of control | dose: 400.0 mg/kg/injection, schedule: Q04DX003 (ip), vehicle: saline with Tween-80 103 % of control

CCCCOCc1cc(CN2CCN(C)CC2)c(O)c2ncccc12
inactive: dose: 25.0 mg/kg/injection, schedule: Q04DX002 (ip), vehicle: saline 89 % of control | dose: 50.0 mg/kg/injection, schedule: Q04DX002 (ip), vehicle: saline 95 % of control | dose: 100.0 mg/kg/injection, schedule: Q04DX002 (ip), vehicle: saline 89 % of control

CCN(CC)CCCNC(C)CCCN(CC)CC (stereo unspecified)
inactive: dose: 50.0 mg/kg/injection, schedule: Q01DX009 (ip), vehicle: water 106 % of control | dose: 100.0 mg/kg/injection, schedule: Q01DX009 (ip), vehicle: water 97 % of control and 107 % of control | dose: 100.0 mg/kg/injection, schedule: Q04DX003 (ip), vehicle: water 98 % of control | dose: 200.0 mg/kg/injection, schedule: Q01DX009 (ip), vehicle: water 101 % of control and 103 % of control | dose: 200.0 mg/kg/injection, schedule: Q04DX003 (ip), vehicle: water 98 % of control | dose: 400.0 mg/kg/injection, schedule: Q01DX009 (ip), vehicle: water 93 % of control

CCOC(=O)CNCc1cccc(Br)c1
inactive: dose: 50.0 mg/kg/injection, schedule: Q01DX005 (ip), vehicle: saline 98 % of control | dose: 100.0 mg/kg/injection, schedule: Q01DX005 (ip), vehicle: saline 112 % of control | dose: 200.0 mg/kg/injection, schedule: Q01DX005 (ip), vehicle: saline 102 % of control | dose: 400.0 mg/kg/injection, schedule: Q01DX005 (ip), vehicle: saline 100 % of control

Nc1cccc(OCCOc2cccc([N+](=O)[O-])c2)c1
inactive: [7] 101 % of control | [8] 95 % of control | [9] 98 % of control

CC1NC(=S)N(c2ccc(S(=O)(=O)c3ccc(N4C(=O)C(C)NC4=S)cc3)cc2)C1=O (stereo unspecified)
inactive: [7] 102 % of control | [8] 98 % of control | [9] 98 % of control

CCOC(=O)C1(C)CCN(C)C1=O (stereo unspecified)
inactive: [7] 96 % of control | [8] 96 % of control | [9] 96 % of control

O=C1C2Nc3ccccc3CC2CN1Cc1ccccc1 (stereo unspecified)
inactive: dose: 10.0 mg/kg/injection, schedule: Q04DX003 (ip), vehicle: alcohol 106 % of control | dose: 20.0 mg/kg/injection, schedule: Q04DX003 (ip), vehicle: alcohol 99 % of control | dose: 40.0 mg/kg/injection, schedule: Q04DX003 (ip), vehicle: alcohol 99 % of control | dose: 80.0 mg/kg/injection, schedule: Q04DX003 (ip), vehicle: alcohol 97 % of control | dose: 160.0 mg/kg/injection, schedule: Q04DX003 (ip), vehicle: alcohol 100 % of control

Cc1cccc(NC(=O)Nc2cccc(Cl)c2)c1C
inactive: [10] 91 % of control | [11] 90 % of control | [12] 100 % of control | [13] 90 % of control | [1] 93 % of control | [14] 89 % of control

O=C(O)c1ccc(NCO)cc1
inactive: dose: 100.0 mg/kg/injection, schedule: Q04DX003 (ip), vehicle: acetone 94 % of control | dose: 200.0 mg/kg/injection, schedule: Q04DX003 (ip), vehicle: acetone 102 % of control | dose: 400.0 mg/kg/injection, schedule: Q04DX003 (ip), vehicle: acetone 108 % of control

CCCCCCCCCCCCCCCCCC(=O)Nc1ccc(O)cc1
inactive: [2] 87 % of control | [3] 88 % of control | [4] 90 % of control | [5] 88 % of control | dose: 400.0 mg/kg/injection, schedule: Q01DX009 (ip), vehicle: gum acacia 90 % of control | [6] 90 % of control

NS(=O)(=O)c1ccc(NC(=O)Nc2cc(C(F)(F)F)ccc2Cl)cc1
inactive: [10] 95 % of control | [12] 100 % of control | [1] 98 % of control

CN(C(=O)/C=C\c1ccccc1)c1ccccc1
inactive: [15] 104 % of control | [16] 104 % of control | [17] 104 % of control

Cc1cc(N)nc(=O)n1C1OC(CO)C(O)C1O (stereo unspecified)
inactive: [7] 96 % of control | [8] 102 % of control | [9] 101 % of control

CCOC(=O)C(c1ccccc1)C(NC(C)=O)(C(=O)OCC)C(=O)OCC (stereo unspecified)
inactive: [15] 114 % of control | [16] 104 % of control | [17] 93 % of control

COc1nc(=S)nc(OC)[nH]1
inactive: dose: 100.0 mg/kg/injection, schedule: Q01DX Z (ip), vehicle: methylcellulose (MC) 95 % of control

CC12CC3CC(C)(C1)CC(Br)(C3)C2
inactive: dose: 50.0 mg/kg/injection, schedule: Q01DX001 (ip), vehicle: carboxymethylcellulose (CMC) 104 % of control | [18] 101 % of control | [19] 113 % of control | dose: 400.0 mg/kg/injection, schedule: Q01DX001 (ip), vehicle: carboxymethylcellulose (CMC) 107 % of control

CC(=O)Nn1c(=O)c(=O)oc2ccccc21
inactive: dose: 75.0 mg/kg/injection, schedule: Q01DX001 (ip), vehicle: acetone 94 % of control | dose: 150.0 mg/kg/injection, schedule: Q01DX001 (ip), vehicle: acetone 93 % of control | dose: 300.0 mg/kg/injection, schedule: Q01DX001 (ip), vehicle: acetone 96 % of control

Cc1ccc(C)c(NC(=O)Nc2ccccc2)c1
inactive: [10] 100 % of control | [11] 98 % of control | [12] 94 % of control | [13] 96 % of control | [1] 98 % of control | [14] 91 % of control

[N-]=[N+]=NCC1OC(n2cnc3c(N)ncnc32)C(O)C1O (stereo unspecified)
inactive: [7] 95 % of control | [8] 103 % of control | [9] 103 % of control

CCCCCCCCCCCCCCCCOc1ccc(C(=S)N2CCOCC2)cc1Cl
inactive: [11] 104 % of control | [13] 91 % of control | [14] 86 % of control

Cc1c[n+]2c3ccccc3c3ccccc3c2s1
inactive: dose: 5.0 mg/kg/injection, schedule: Q01DX009 (ip), vehicle: Klucel (hydroxypropylcellulose) (HPC) 114 % of control | dose: 10.0 mg/kg/injection, schedule: Q01DX001 (ip), vehicle: saline 105 % of control | dose: 10.0 mg/kg/injection, schedule: Q01DX009 (ip), vehicle: Klucel (hydroxypropylcellulose) (HPC) 118 % of control | dose: 10.0 mg/kg/injection, schedule: Q04DX003 (ip), vehicle: Klucel (hydroxypropylcellulose) (HPC) 94 % of control | dose: 20.0 mg/kg/injection, schedule: Q01DX001 (ip), vehicle: saline 100 % of control | dose: 20.0 mg/kg/injection, schedule: Q01DX009 (ip), vehicle: Klucel (hydroxypropylcellulose) (HPC) 123 % of control | dose: 20.0 mg/kg/injection, schedule: Q04DX003 (ip), vehicle: Klucel (hydroxypropylcellulose) (HPC) 97 % of control | dose: 40.0 mg/kg/injection, schedule: Q01DX001 (ip), vehicle: saline 98 % of control

Cc1cc(C)c(NS(=O)(=O)c2ccc(Cl)cc2)cc1C
inactive: [10] 108 % of control | [12] 106 % of control | [1] 100 % of control

CC/C(=C/C(F)(F)C(F)(F)C(F)(F)F)[N+](=O)[O-]
inactive: [18] 112 % of control | [19] 103 % of control
